Results as given in ChEMBL document CHEMBL1127912, “The contribution to binding of the pyranoside substituents in the excised binding domain of FK-506” (Bioorg Med Chem Lett, 1994).

The compounds below were run against Peptidyl-prolyl cis-trans isomerase FKBP1A (Homo sapiens, UniProt P62942) (assay: Ability to displace radiolabeled FK-506 derivative from FK506 binding protein 12).
Sequence of Peptidyl-prolyl cis-trans isomerase FKBP1A (P62942 whole entry): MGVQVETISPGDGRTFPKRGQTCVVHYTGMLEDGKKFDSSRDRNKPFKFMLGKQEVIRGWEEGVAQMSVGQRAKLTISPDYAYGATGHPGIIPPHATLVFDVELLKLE

| Kd [µM] | SMILES |
| --- | --- |
| 40 | C=CCCC[C@H](OC(=O)[C@@H]1CCCCN1C(=O)C(=O)[C@@]1(O)CC[C@H](OC)[C@@H](COC)O1)/C(C)=C/[C@@H]1CC[C@@H](O)[C@H](OC)C1 |
| 29 | C=CCCC[C@H](OC(=O)[C@@H]1CCCCN1C(=O)C(=O)[C@@]1(O)CCCCO1)/C(C)=C/[C@@H]1CC[C@@H](O)[C@H](OC)C1 |
| 0.01 | C=CCCC[C@H](OC(=O)[C@@H]1CCCCN1C(=O)C(=O)[C@]1(O)O[C@H](COC)[C@@H](OC)C[C@H]1C)/C(C)=C/[C@@H]1CC[C@@H](O)[C@H](OC)C1 |
